Test [1] has as its system co-culture model of human muscle cells and neurons from the spinal marrow of rat embryos. The experiment in a line: Efficacy test: frequency of muscle contractions in a nerve-muscle co-culture model. The format is cell-based, human (myoblasts), rat (embryo spinal explants). The settings on record: for Variation Δ [in %] of the number of muscle contractions (1 min): 1 minute after incubation; for Variation Δ [in %] of the number of muscle contractions (1 min) / Variation Δ [in %] of the number of muscle contractions (2 h) / Variation Δ [in %] of the number of muscle contractions (48 h): contractions counted for 30 seconds, compared to number before incubation, means of 3 measurements; for Variation Δ [in %] of the number of muscle contractions (2 h): 2 hours after incubation; for Variation Δ [in %] of the number of muscle contractions (48 h): 48 hours after incubation. Here is the method: Culture conditions: 37° C., 5% CO2 In order to test the efficacy of the compounds of the present invention, a co-culture model of human muscle cells on one hand and neurons from the spinal marrow of rat embryos on the other hand was established. Normal human muscle cells (myoblasts) were cultured in gelatine-coated 24-well plates until a monolayer of myofibrils (from fused muscle cells) had formed. Afterwards, an explant of the spinal marrow of a 13 day-old rat embryo with dorsal root ganglia was placed on the muscle cell monolayer. After one day of co-culture, the first axons were seen to grow out of the explant to come in contact with muscle cells. The first contractions appeared after 5 days. […] At this stage of development, the myofibrils performed regular contractions and the model was used for the tests.

In test [2] the test system is Ca++-dependent neurotransmitter release in the synapses. The settings on record: cited from earlier work.

The structures appear in SMILES notation. Non-standard residues stand in square brackets, D forms with d. Residues, ends and D or L forms follow the SMILES beside them. *: point of attachment. NHPhenethyl = c1ccc(CCN*)cc1; Dap = NC[CH](N)C(=O)O; NHBn = c1ccc(CN*)cc1

As to `CC(N)C(=O)N1CCCC1C(=O)NC(CCCNC(=N)N)C(=O)NCCc1ccccc1` (stereo not drawn) [4.7] (H-Ala-Pro-Arg-NHPhenethyl; configuration not given here), in test [1] (0.1 mM), the “Variation Δ [in %] of the number of muscle contractions (1 min)” value (“Variation Δ [in %] of the number … (1 min)” below) was 103%, the “Variation Δ [in %] of the number of muscle contractions (2 h)” value (“Variation Δ [in %] of the number … (2 h)” below) came out at 69% and the “Variation Δ [in %] of the number of muscle contractions (48 h)” value (from here on “Variation Δ [in %] of the number … (48 h)”) is on record as 74%. For the same compound, in test [1] (0.5 mM), the “Variation Δ [in %] of the number … (1 min)” value is reported as 91%, the “Variation Δ [in %] of the number … (2 h)” value is reported as 0% and the “Variation Δ [in %] of the number … (48 h)” value came to 34%. In test [1] (1.0 mM), the “Variation Δ [in %] of the number … (1 min)” value was found to be 105%, the “Variation Δ [in %] of the number … (2 h)” value is recorded as 65% and the “Variation Δ [in %] of the number … (48 h)” value is reported as 3%.
With `CC(N)C(=O)N1CCCC1C(=O)NC(CCCNC(=N)N)C(=O)NCc1ccccc1` (stereo not drawn) [4.2] (H-Ala-Pro-Arg-NHBn; configuration not given here), in test [1] (0.1 mM), the “Variation Δ [in %] of the number … (1 min)” value is 85%, the “Variation Δ [in %] of the number … (2 h)” value is 78% and the “Variation Δ [in %] of the number … (48 h)” value is reported as 37%. In test [1] (0.5 mM), the “Variation Δ [in %] of the number … (1 min)” value came to 93%, the “Variation Δ [in %] of the number … (2 h)” value was 37% and the “Variation Δ [in %] of the number … (48 h)” value is reported as 36%. In addition, in test [1] (1.0 mM), the “Variation Δ [in %] of the number … (1 min)” value worked out at 85%, the “Variation Δ [in %] of the number … (2 h)” value came out at 12% and the “Variation Δ [in %] of the number … (48 h)” value is 60%.
Regarding `C[C@H](N=C(N(C)C)N(C)C)C(=O)N1CCC[C@@H]1C(=O)N[C@@H](CCCNC(=N)N)C(=O)NCc1ccccc1` [4.11], the entries for the “Variation Δ [in %] of the number … (1 min)” value in test [1] (0.1 mM), in test [1] (0.5 mM) and in test [1] (1.0 mM) were 105%, 105% and 104%, respectively. Also, the “Variation Δ [in %] of the number … (2 h)” value in test [1] (0.1 mM) was 75%; in test [1] (0.5 mM), 16%; in test [1] (1.0 mM), 7%. Besides, the results for the “Variation Δ [in %] of the number … (48 h)” value in test [1] (0.1 mM), in test [1] (0.5 mM) and in test [1] (1.0 mM) were 96%, 22% and 0%, respectively.
Take `N=C(N)NCCCC(NC(=O)C1CCCN1C(=O)C(N)CN)C(=O)NCc1ccccc1` (stereo not drawn) [4.6] (H-[Dap]-Pro-Arg-NHBn; configuration not given here): in test [1] (0.1 mM), the “Variation Δ [in %] of the number … (1 min)” value worked out at 85%, the “Variation Δ [in %] of the number … (2 h)” value is reported as 68% and the “Variation Δ [in %] of the number … (48 h)” value was found to be 43%. Further, in test [1] (0.5 mM), the “Variation Δ [in %] of the number … (1 min)” value came to 78%, the “Variation Δ [in %] of the number … (2 h)” value was determined as 42% and the “Variation Δ [in %] of the number … (48 h)” value is 0%. In test [1] (1.0 mM), the “Variation Δ [in %] of the number … (1 min)” value came out at 68%, the “Variation Δ [in %] of the number … (2 h)” value stood at 35% and the “Variation Δ [in %] of the number … (48 h)” value is given as 0%.
For `CSCC[C@H](NC(=O)[C@H](CCC(=O)O)NC(=O)[C@H](CCC(=O)O)NC(C)=O)C(=O)N[C@@H](CCC(N)=O)C(=O)N[C@@H](CCCNC(=N)N)C(=O)N[C@@H](CCCNC(=N)N)C(N)=O` [Product A, Ac-Glu-Glu-Met-Gln-Arg-Arg-NH2, reference compound] (Ac-EEMQRR-NH2), the “Variation Δ [in %] of the number … (1 min)” value in test [1] (0.05 mM) is 103%; in test [1] (0.1 mM), 103%; in test [1] (0.5 mM), 106%; in test [1] (1.0 mM), 99%. Also, the “Variation Δ [in %] of the number … (2 h)” value in test [1] (0.05 mM) was 96%; in test [1] (0.1 mM), 120%; in test [1] (0.5 mM), 91%; in test [1] (1.0 mM), 88%. For the same compound, in test [1] (result in words), the “muscle-relaxing effect / activity profile with regard to muscle relaxation” value was “too weak and too inconstant”. For the same compound, in test [2], the “acts weaker than Botox (factor)” value is 5000 times.
Turning to `CC(N)C(=O)N1CCCC1C(=O)NC(CCCNC(=N)N)C(=O)NC(CCCNC(=N)N)C(=O)NCc1ccccc1` (stereo not shown) [4.3] (H-APRR-NHBn; configuration not given here), in test [1] (0.1 mM), the “Variation Δ [in %] of the number … (1 min)” value was found to be 91%, the “Variation Δ [in %] of the number … (2 h)” value was 5% and the “Variation Δ [in %] of the number … (48 h)” value is 88%. Also, in test [1] (0.5 mM), the “Variation Δ [in %] of the number … (1 min)” value amounted to 73%, the “Variation Δ [in %] of the number … (2 h)” value is reported as 1% and the “Variation Δ [in %] of the number … (48 h)” value turned out to be 87%. In addition, in test [1] (1.0 mM), the “Variation Δ [in %] of the number … (1 min)” value came to 25%, the “Variation Δ [in %] of the number … (2 h)” value was determined as 0% and the “Variation Δ [in %] of the number … (48 h)” value stood at 7%.
As for `COc1ccc(CNC(=O)C(CCCNC(=N)N)NC(=O)C2CCCN2C(=O)C(C)N)cc1` (stereo not shown) [4.8], in test [1] (0.1 mM), the “Variation Δ [in %] of the number … (1 min)” value worked out at 85%, the “Variation Δ [in %] of the number … (2 h)” value was determined as 37% and the “Variation Δ [in %] of the number … (48 h)” value is 132%. Also, in test [1] (0.5 mM), the “Variation Δ [in %] of the number … (1 min)” value is 84%, the “Variation Δ [in %] of the number … (2 h)” value is recorded as 90% and the “Variation Δ [in %] of the number … (48 h)” value worked out at 78%. Moreover, in test [1] (1.0 mM), the “Variation Δ [in %] of the number … (1 min)” value was determined as 100%, the “Variation Δ [in %] of the number … (2 h)” value worked out at 58% and the “Variation Δ [in %] of the number … (48 h)” value was 32%.

Values taken from patent US7964630B2, “Topical application agents against mimic and age-related wrinkles” (DSM IP Assets B.V., priority 2004, dated 2011).
